According to ChEMBL document CHEMBL5356940, “The rational design of ARUK2007145, a dual inhibitor of the α and γ isoforms of the lipid kinase phosphatidylinositol 5-phosphate 4-kinase (PI5P4K)” (RSC Med Chem, 2023):

Columns and labels:
[1] = Apparent permeability across apical to basolateral side in dog MDCK-MDR1 cells; type: ADME, cell-based, Canis lupus familiaris
[2] = molecular target: Phosphatidylinositol 5-phosphate 4-kinase type-2 gamma (Homo sapiens, UniProt Q8TBX8)
Description: Inhibition of GST-fused human recombinant chimeric PI5P4Kgamma+ harboring PI5P4Kalpha-like mutations expressed in Escherichia coli BL21(DE3) incubated for 60 mins by ADP-Glo assay

[3] = molecular target: T1, Phosphatidylinositol 5-phosphate 4-kinase type-2 beta (Homo sapiens, UniProt P78356); assay: Inhibition of GST-fused human recombinant PI5P4Kbeta expressed in Escherichia coli BL21(DE3) incubated for 60 mins by ADP-Glo assay
T1 sequence (P78356 whole entry): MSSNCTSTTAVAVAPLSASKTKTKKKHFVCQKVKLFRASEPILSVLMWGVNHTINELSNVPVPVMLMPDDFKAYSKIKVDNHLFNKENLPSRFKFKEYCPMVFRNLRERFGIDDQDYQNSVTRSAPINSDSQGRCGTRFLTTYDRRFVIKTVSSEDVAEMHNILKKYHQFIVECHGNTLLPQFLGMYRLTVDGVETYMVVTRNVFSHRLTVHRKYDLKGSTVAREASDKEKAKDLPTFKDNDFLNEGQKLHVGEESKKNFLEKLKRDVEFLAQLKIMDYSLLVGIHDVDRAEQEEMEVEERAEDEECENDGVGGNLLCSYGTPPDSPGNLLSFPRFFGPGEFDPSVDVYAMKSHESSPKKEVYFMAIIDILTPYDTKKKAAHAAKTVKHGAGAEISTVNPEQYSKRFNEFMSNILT

Sequence of Phosphatidylinositol 5-phosphate 4-kinase type-2 gamma (Q8TBX8 2-421 limits assumed, stated change not applied): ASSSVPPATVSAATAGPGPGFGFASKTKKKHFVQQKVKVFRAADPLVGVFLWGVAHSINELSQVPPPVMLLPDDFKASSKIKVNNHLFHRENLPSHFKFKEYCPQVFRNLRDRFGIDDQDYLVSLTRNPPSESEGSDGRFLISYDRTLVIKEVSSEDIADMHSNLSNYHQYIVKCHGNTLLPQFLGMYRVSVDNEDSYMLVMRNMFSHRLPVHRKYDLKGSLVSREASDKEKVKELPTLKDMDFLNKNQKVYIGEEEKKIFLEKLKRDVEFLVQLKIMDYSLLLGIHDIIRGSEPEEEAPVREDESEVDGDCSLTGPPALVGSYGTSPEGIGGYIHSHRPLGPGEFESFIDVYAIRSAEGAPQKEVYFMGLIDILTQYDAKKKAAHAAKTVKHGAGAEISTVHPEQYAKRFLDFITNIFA

Cc1ncccc1-c1cc2ncnc(Nc3ccc(N4CCCC4=O)cc3)c2s1 gave a Papp A→B [1] of 3.15 ×10⁻⁶ cm/s and a pIC50 [2] of 8.1.

Cc1ncccc1-c1cc2ncnc(Nc3ccc4ncoc4c3)c2s1 showed a pIC50 [2] of 6.3.

CSc1ccc(Nc2ncnc3sc(-c4cccnc4C)cc23)cc1 gave a pIC50 [2] of 7.3.

For Cc1ncccc1-c1cc2c(Nc3ccc(C4CC4)cc3)ncnc2s1, the pIC50 [2] was 7.

CCc1ccc(Nc2ncnc3sc(-c4cccnc4C)cc23)cc1 showed a pIC50 [2] of 6.4.

Cn1cc(-c2cc3c(Nc4ccc(S(C)(=O)=O)cc4)ncnc3s2)cn1 showed an IC50 [3] greater than 10 µM, a Papp A→B [1] of 2.88 ×10⁻⁶ cm/s and a pIC50 [2] of 7.4.

Cc1ccncc1-c1cc2c(Nc3ccc(S(C)(=O)=O)cc3)ncnc2s1 showed a Papp A→B [1] of 2.45 ×10⁻⁶ cm/s and a pIC50 [2] of 7.9.

Compound CSc1ccc(Nc2ncnc3sc(-c4cnoc4)cc23)cc1 has a pIC50 [2] of 7.4.

CSc1ccc(Nc2ncnc3sc(-c4ccncc4C)cc23)cc1 gave a Papp A→B [1] of 3.7 ×10⁻⁶ cm/s and a pIC50 [2] of 7.7.

CS(=O)(=O)c1ccc(Nc2ncnc3scc(Cl)c23)cc1 gave a Papp A→B [1] of 14.2 ×10⁻⁶ cm/s.

In the case of Cc1cnccc1-c1cc2c(Nc3ccc(S(C)(=O)=O)cc3)ncnc2s1, the IC50 [3] is reported as greater than 10 µM and the Papp A→B [1] is reported as 3.13 ×10⁻⁶ cm/s.

Work on Cc1ncccc1-c1cc2c(Nc3ccc(S(C)(=O)=O)cc3)ncnc2s1 yielded an IC50 [3] greater than 10 µM, a Papp A→B [1] of 1.33 ×10⁻⁶ cm/s and a pIC50 [2] of 7.7.

Cc1ncccc1-c1cc2ncnc(Nc3ccc(C4CC4)cc3)c2s1 gave a Papp A→B [1] of 9.95 ×10⁻⁶ cm/s and a pIC50 [2] of 7.3.

CS(=O)(=O)c1ccc(Nc2ncnc3sc(-c4cccnc4)cc23)cc1 gave a pIC50 [2] of 7.5.

For COc1cnccc1-c1cc2c(Nc3ccc(S(C)(=O)=O)cc3)ncnc2s1, the pIC50 [2] was 7.5.

In the case of COc1ccc(Nc2ncnc3sc(-c4cccnc4C)cc23)cc1, the pIC50 [2] is reported as 5.7.

Cc1ccc(Nc2ncnc3sc(-c4cccnc4C)cc23)c(C)c1 gave a pIC50 [2] of 5.4.

For CSc1ccc(Nc2ncnc3cc(-c4cccnc4Cl)sc23)cc1, the Papp A→B [1] was 12.9 ×10⁻⁶ cm/s and the pIC50 [2] was 8.1.

For Cc1ccc(Nc2ncnc3sc(-c4cccnc4C)cc23)cc1, the pIC50 [2] was 5.8.

In the case of Cc1cccc(Nc2ncnc3sc(-c4cccnc4C)cc23)c1, the pIC50 [2] is reported as 5.3.

Work on CSc1ccc(Nc2ncnc3sc(-c4cccnc4Cl)cc23)cc1 yielded a pIC50 [2] of 7.7.

CSc1ccc(Nc2ncnc3sc(-c4c(C)noc4C)cc23)cc1 gave a pIC50 [2] of 7.6.

Cc1ccc(Nc2ncnc3sc(-c4cccnc4C)cc23)cc1C showed a pIC50 [2] of 5.9.

Compound CS(=O)(=O)c1ccc(Nc2ncnc3sc(-c4cn[nH]c4)cc23)cc1 has a pIC50 [2] of 7.8.

With CS(=O)(=O)c1ccc(Nc2ncnc3cc(-c4cccnc4Cl)sc23)cc1 the Papp A→B [1] was 1.33 ×10⁻⁶ cm/s and the pIC50 [2] was 7.9.

Compound CS(=O)(=O)c1ccc(Nc2ncnc3sc(-c4cccnc4Cl)cc23)cc1 has an IC50 [3] greater than 10 µM and a Papp A→B [1] of 4.73 ×10⁻⁶ cm/s.

With CS(=O)(=O)c1ccc(Nc2ncnc3sc(-c4ccnc(Cl)c4)cc23)cc1 the pIC50 [2] was 7.2.

CS(=O)(=O)c1ccc(Nc2ncnc3sc(-c4ccncc4)cc23)cc1 gave a pIC50 [2] of 7.7.
